Experimental data reported in ChEMBL document CHEMBL1201862, “PubChem BioAssay data set” (2004).
Calls of active or inactive are those of the source.

Experiments:
[1] = biological target: T1, Ubiquitin-conjugating enzyme E2 N (Homo sapiens, UniProt P61088); format: functional;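 also: Dose-response confirmation in a TR-FRET assay detecting UBC13-driven polyubiquitin chain formation, inhibition measured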
T1 sequence (P61088 whole entry): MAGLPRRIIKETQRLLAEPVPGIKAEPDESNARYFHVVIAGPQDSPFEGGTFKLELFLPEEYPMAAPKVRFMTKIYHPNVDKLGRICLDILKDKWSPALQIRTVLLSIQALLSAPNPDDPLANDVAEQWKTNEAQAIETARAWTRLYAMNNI

[2] = HEp-2 cell cytotoxicity, dose response, cytotoxicity control for RSV inhibitor project, HTS (AID 2410); format: functional; details: human respiratory syncytial virus
[3] = biological target: FAD-linked sulfhydryl oxidase ALR (Homo sapiens, UniProt P55789); assay: inhibitors of human ALR sulfhydryl oxidase, dose response, biochemical, H2O2 detection, luminescence, cherry-pick (AID 493248)
Chain of FAD-linked sulfhydryl oxidase ALR (P55789 whole entry): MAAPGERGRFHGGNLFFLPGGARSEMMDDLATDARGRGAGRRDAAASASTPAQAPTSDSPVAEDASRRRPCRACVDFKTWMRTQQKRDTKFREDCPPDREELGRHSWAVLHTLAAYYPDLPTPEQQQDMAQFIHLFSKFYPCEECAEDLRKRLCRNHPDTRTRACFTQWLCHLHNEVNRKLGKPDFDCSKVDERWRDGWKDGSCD

Streptococcus = assay: Group A Streptococcus viability loss, dose response, counter-screen for streptokinase expression inhibitor project, luminescence, BacTiterGlo (AID 1915); format: functional, organism-based;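 also: potency for reduction of bacterial viability or growth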
[4] = inhibitors of intracellular T. cruzi replication, confirmation, NIH3T3 host cells, beta-gal luminescence (AID 2044); format: functional, cell-based;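 also: intracellular parasites grown in NIH/3T3 mouse fibroblasts as host cells; luminescent beta-galactosidase reporter signal from transgenic T. cruzi replicating inside host cells; inhibitors lower the luminescence signal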
Streptokinase A = biological target: T2, Streptokinase A (Streptococcus pyogenes serotype M1, UniProt P10520); assay: S. pyogenes streptokinase expression inhibitors, potency, dose response, plasminogen activation absorbance, OD405 (AID 1914); format: functional, Streptococcus pyogenes M1 GAS;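 also: secreted streptokinase activity via plasminogen activation per viability signal from cell pellet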
T2 sequence (P10520 whole entry): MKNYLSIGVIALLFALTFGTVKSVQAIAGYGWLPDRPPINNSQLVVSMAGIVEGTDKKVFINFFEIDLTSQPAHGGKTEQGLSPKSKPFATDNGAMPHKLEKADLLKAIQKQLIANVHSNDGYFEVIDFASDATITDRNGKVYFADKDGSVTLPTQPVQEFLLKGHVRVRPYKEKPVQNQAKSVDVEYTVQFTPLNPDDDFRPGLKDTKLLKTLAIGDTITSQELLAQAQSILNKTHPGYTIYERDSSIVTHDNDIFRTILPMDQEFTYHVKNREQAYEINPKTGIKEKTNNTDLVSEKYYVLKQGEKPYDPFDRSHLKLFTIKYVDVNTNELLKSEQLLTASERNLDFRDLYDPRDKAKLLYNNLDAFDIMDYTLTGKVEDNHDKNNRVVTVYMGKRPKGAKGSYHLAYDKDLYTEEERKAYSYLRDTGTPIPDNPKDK

[5] = cytotoxicity toward NIH3T3 fibroblasts, dose response, counter-screen, cell-based, ATP luminescence, mouse fibroblasts (AID 2010); format: functional;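 also: cells exposed to compound for about 90 hours before reading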
[6] = system: Streptococcus sp. 'group A'; assay: growth inhibition of control SK(-) GAS strain, dose response, counter-screen for streptokinase expression inhibitor project, luminescence, kanamycin, BacTiterGlo, confirmation (AID 1900); format: functional, organism-based
[7] = biological target: T3, Corticotropin-releasing factor receptor 2/Corticotropin-releasing factor-binding protein (Homo sapiens, UniProt P24387+Q13324); assay: Dose Response confirmation of uHTS hits for small molecule antagonists of the CRF-binding protein and CRF-R2 receptor complex.; format: functional; details: read-out: IC50_Mean
T3 sequence (Q13324 whole entry): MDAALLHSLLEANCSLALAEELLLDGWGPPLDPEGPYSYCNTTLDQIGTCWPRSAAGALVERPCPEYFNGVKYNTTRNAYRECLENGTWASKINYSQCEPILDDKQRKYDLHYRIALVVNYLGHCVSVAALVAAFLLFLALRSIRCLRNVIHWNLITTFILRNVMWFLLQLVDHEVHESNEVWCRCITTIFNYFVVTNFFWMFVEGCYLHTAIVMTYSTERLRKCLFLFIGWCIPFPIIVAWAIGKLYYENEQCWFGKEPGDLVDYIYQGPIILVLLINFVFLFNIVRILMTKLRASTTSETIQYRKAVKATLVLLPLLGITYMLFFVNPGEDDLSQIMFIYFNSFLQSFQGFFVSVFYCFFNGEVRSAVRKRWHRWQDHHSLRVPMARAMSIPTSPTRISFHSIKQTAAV
T3 sequence (P24387 whole entry): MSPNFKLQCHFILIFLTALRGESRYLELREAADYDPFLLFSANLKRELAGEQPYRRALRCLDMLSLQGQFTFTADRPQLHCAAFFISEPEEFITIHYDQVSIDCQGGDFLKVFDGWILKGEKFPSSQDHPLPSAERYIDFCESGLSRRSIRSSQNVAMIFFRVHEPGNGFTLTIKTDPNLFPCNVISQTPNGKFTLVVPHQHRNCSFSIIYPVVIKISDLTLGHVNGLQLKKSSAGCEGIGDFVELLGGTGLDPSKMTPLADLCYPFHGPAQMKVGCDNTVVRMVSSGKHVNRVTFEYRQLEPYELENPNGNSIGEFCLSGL

[8] = biological target: T3, Corticotropin-releasing factor receptor 2/Corticotropin-releasing factor-binding protein; assay: activators of CRF receptor 2 with binding protein – uHTS hits, confirmation (AID 602473); format: functional; details: read-out: EC50_Mean
H9c2 = assay: cells; format: functional, cell-based; details: Rattus norvegicus, H9c2, Myocardium;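 also: confirmatory concentration-response retest of ultra-high-throughput screening hits for modulation of myocardial damage; cell death induced by hydrogen peroxide oxidative stress; compound pretreatment for 60 min then peroxide exposure for 2 h; potency is for protecting the cells against peroxide damage rather than for killing them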
Large T antigen = Large T antigen (Simian virus 40, UniProt P03070); format: functional, Betapolyomavirus macacae;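 also: Confirmatory-stage PubChem screen for compounds that inhibit SV40 T antigen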
Chain of Large T antigen (P03070 whole entry): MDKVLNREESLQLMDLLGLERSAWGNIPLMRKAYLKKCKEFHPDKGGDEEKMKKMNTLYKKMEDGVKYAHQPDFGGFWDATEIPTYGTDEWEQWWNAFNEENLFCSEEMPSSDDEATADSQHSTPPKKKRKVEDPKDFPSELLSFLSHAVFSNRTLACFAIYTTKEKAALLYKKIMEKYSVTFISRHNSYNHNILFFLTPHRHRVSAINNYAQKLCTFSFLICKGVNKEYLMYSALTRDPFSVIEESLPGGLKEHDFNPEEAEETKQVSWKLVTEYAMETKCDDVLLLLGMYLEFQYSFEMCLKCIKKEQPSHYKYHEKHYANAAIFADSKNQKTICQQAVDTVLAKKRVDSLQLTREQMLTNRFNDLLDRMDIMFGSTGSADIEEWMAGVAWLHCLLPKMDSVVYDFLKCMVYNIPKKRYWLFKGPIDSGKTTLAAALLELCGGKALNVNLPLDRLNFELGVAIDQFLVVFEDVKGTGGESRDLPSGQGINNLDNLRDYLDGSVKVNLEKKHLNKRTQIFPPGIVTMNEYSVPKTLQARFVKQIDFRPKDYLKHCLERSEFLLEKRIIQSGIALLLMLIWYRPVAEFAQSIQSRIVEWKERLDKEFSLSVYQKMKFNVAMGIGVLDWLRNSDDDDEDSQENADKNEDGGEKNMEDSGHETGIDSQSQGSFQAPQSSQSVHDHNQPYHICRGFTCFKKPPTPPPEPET

[9] = growth suppression of PTEN-null colon cells, dose response, cell-based, HCT116 PTEN knockout (AID 1047); format: functional;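 also: HCT116 colon tumor cells with PTEN knocked out; cells exposed to compound for 60 hours before readout; potency for loss of cell viability measured by luminescence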
[10] = growth suppression of beta-catenin-knockout colon cells, dose response, cell-based, HCT116, human colon tumor (AID 1045); format: functional;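 also: HCT116 colon tumor cells with beta catenin knocked out; cells exposed to compound for 60 hours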
[11] = biological target: T4, Rac GTPase-activating protein 1 (Homo sapiens, UniProt Q9H0H5); assay: MgcRacGAP GTPase-activating activity inhibitors, confirmation, biochemical, ADP Hunter fluorescence, primary and confirmatory (AID 624330); format: functional
T4 sequence (Q9H0H5 whole entry): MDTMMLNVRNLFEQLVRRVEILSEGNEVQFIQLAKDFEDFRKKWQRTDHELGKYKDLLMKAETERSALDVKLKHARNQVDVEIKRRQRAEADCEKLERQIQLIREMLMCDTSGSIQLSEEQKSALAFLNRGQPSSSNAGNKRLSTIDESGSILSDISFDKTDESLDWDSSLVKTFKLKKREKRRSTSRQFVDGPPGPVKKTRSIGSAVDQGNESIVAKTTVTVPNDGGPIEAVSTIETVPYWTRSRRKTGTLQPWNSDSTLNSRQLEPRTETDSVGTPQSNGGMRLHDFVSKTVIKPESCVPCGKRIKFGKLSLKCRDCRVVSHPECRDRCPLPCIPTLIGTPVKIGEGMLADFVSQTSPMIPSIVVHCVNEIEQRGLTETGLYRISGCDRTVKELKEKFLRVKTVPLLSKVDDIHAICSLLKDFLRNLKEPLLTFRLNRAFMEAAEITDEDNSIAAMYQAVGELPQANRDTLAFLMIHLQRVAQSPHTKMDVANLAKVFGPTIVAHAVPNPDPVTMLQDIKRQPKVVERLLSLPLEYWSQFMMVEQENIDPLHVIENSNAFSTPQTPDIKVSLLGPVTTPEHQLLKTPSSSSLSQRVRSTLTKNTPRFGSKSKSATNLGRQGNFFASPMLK

[12] = biological target: T5, Heat shock factor protein 1 (Mus musculus, UniProt P38532); assay: HSF1 potentiators in luciferase reporter cells, confirmation, cell-based, NIH3T3, luminescence, dose retest (AID 435004); format: functional;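 also: stress induced by proteasome inhibitor MG132 added 30 min after compound; luciferase reporter driven by HSF1 response element in NIH3T3 cells; actives raise luminescence as potentiators of the MG132 stress response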
T5 sequence (P38532 whole entry): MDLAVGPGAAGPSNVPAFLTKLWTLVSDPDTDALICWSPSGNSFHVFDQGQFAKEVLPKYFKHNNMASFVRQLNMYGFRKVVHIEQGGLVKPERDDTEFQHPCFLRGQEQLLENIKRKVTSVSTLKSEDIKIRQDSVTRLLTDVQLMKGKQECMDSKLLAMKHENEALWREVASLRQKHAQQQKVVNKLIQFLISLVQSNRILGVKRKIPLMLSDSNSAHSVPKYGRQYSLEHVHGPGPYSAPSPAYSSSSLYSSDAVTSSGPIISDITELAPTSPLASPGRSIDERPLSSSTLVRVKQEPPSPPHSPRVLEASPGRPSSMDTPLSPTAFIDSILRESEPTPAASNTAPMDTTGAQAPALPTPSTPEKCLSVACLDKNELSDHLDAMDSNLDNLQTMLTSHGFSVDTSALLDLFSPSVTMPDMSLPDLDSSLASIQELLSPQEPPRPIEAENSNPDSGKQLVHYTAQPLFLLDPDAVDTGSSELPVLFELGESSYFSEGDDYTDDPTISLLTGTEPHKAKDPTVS

CNCC(O)c1cc(OCc2ccccc2)c(OCc2ccccc2)cc1F (stereo not given)
IC50 [1]: > 20 µM (inactive) | CC50 [2]: 22.3 µM (active)

CCCCNC(=O)c1onc(CSc2ccc(C)c(C)c2)c1C(=O)O
AC50 [3]: 8.26 µM (active)

O=C(C[N+]1=C2SC=C(c3ccccc3)N2CC1)c1ccc(Br)cc1
AC50 [3]: 0.221 µM (active)

C=CCn1c(NC(=O)c2ccc(C)cc2)nc2ccccc21
EC50 (Streptococcus): > 150 µM (not active) | EC50 [4]: 2.11 µM (active) | EC50 (Streptokinase A): > 150 µM (not active) | EC50 [5]: > 60 µM (not active) | IC50 [1]: > 20 µM (inactive) | EC50 [6]: 84.6 µM (active)

O=S(=O)(NNc1ccc(F)cc1F)c1cccc(Cl)c1
AC50 [3]: 1.35 µM (active)

COc1ccccc1S(=O)(=O)N1CCn2cccc2C1C (stereo not given)
IC50 [7]: > 47.1 µM (inactive) | EC50 [8]: > 53 µM (inactive)

CC(=O)Oc1ccc(C(=O)OCC(=O)c2c(N)n(C)c(=O)n(C)c2=O)cc1OC(C)=O
IC50 (H9c2): 6.29 µM (active) | IC50 (Large T antigen): 8.56 µM (active)

CCN(CC)S(=O)(=O)c1cc(C(=O)Nc2cc(Cl)ccc2N2CCN(C)CC2)ccc1Cl
EC50 [9]: 13.3 µM (active) | EC50 [10]: 15.8 µM (active)

Cc1ccc(C23CC4CC(CC(NC(=O)NCCN(C)C)(C4)C2)C3)cc1
EC50 [9]: 20.9 µM (active) | EC50 [4]: 0.948 µM (active) | EC50 [5]: > 60 µM (not active) | EC50 [10]: 17.9 µM (active)

Cc1cccc2sc(N(CCN3CCOCC3)C(=O)CCS(=O)(=O)c3ccccc3)nc12
IC50 [1]: > 20 µM (inactive)

N#Cc1c(N)nc(SC2CCCCC2=O)c(C#N)c1-c1ccco1 (stereo not given)
IC50 [7]: < 0.368 µM (active) | EC50 [8]: > 53 µM (inactive)

Cn1cccc1Cc1nnc(SCC(=O)N2CCN(c3ccccc3)CC2)n1-c1ccc(F)cc1
IC50 [7]: > 47.1 µM (inactive) | EC50 [8]: > 53 µM (inactive)

CN(C)c1ccc(NS(=O)(=O)c2ccc(Cl)cc2)cc1
IC50 [11]: 30.6 µM (active) | IC50 (Large T antigen): 11.7 µM (active)

Cc1cccc(OCC(O)CN2CCN(CCN3C(=O)c4cccc5cccc(c45)C3=O)CC2)c1C (stereo not given)
EC50 [4]: 2.14 µM (active) | EC50 [5]: 8.54 µM (active) | IC50 [1]: > 20 µM (inactive)

CC(=O)N1CCC2(CC1)NC(=O)N(c1ccccc1)N2
EC50 [12]: 136 µM (active) | AC50 [3]: 5 µM (active)

Cc1ccnc(-n2c(C)cc(/C=C3\C(=O)NC(=S)N(C)C3=O)c2C)c1
EC50 [9]: 95.3 µM (active) | EC50 [10]: 65.8 µM (active)
